The values that follow are results of earlier work, collected in patent publication US11260097B2, “Immunomodulatory composition to treat and/or prevent COVID-19 illness” (priority 2020, dated 2022).

For series [1] the following is noted: in vivo.
The conditions of series [2]: high doses.

Turning to glycophosphopeptical [AM3], the “onset of clinical improvement in cough, sputum and shortness of breath” value in series [1] is 3 days.

Take `CC1=CC(=O)C(C(C)C)=CC1=O` [thymoquinone, 2-isopropyl-5-methyl-1,4benzoquinone]: the water solubility entry is reported as “poor water solubility”. Besides, the toxicity result in series [2] is recorded as “toxicity at high doses”. In the case of `C[C@@H]1O[C@@H](O[C@H]2[C@H](O[C@H]3CC[C@@]4(C)[C@@H](CC[C@]5(C)[C@@H]4CC=C4[C@@H]6CC(C)(C)CC[C@]6(C(=O)O)CC[C@]45C)[C@]3(C)CO)OC[C@H](O)[C@@H]2O)[C@H](O)[C@H](O)[C@H]1O` [alpha-heridin, alpha-hederin], the water solubility entry is “water soluble”. With Nigellidine, the “solubility in acid media” value was “soluble in acid media”.
